Data published in patent US8227620B2, “Pharmaceutical compounds” (Neuroscienze Pharmaness S.C. A.R.L., priority 2004, dated 2012).

How the values were obtained:
CB1 receptors [1] = biological target: T1, CB1 receptors (Rattus norvegicus, UniProt P20272); experiment: Radioreceptor binding, [3H]-CP-55,940 displacement, rat brain membranes; design: from tissue; host or cells: whole animal (rat), central CB1 receptors of the hypothalamus; conditions: 1 nM [3H]-CP55,940
Text: (§1) The receptorial binding technique allows indeed to establish if and with what affinity and specificity a determined compound binds itself to a particular receptor. To evaluate the affinity of a determined compound towards a particular receptor, a particular preparation of the tissue wherein the receptors are present is used and the tested compound is made to compete with another compound, treated so as to make it radioactive and of which the affinity for the receptor is known. […] The reading of the radioactivity present in the receptor-compound complex allows furthermore to precisely calculate the compound amount bound to the receptor. By this method it is therefore possible to rapidely identify the affinity of a new compound towards a specific receptor and thus to make predictions on its pharmacological activity. By repeating the same experimental scheme it is possible to evaluate the affinity of the compound towards other kinds of receptors and thus establish the specificity degree.
(§2) Food and water were available ad libitum.
(§3) The animals were sacrificed by cervical dislocation, the brain in toto (cerebellum excluded) and the spleen were rapidely dissected and maintained in ice.
(§4) The tissue was homogenized in 15 volumes (weight/volume) of TME buffer (50 mM Tris, 1 mM EDTA e 3 mM MgCl2, pH 7.4) by an Ultra-Turrax and centrifuged for 10 minutes at 1086×g in a centrifuge cooled at 4° C. The resulting supernatant was centrifuged at 45,000×g for 30 min at 4° C. by using a Beckman SW41 rotor and the final pellet was resuspended in 50 volumes of TME.
(§5) The obtained membranes (50-80 μg of proteins) were incubated in the presence of 1 nM di [^3H]-CP55,940 for 1 h at 30° C. in a final volume of 0.5 ml of TME buffer containing 5 mg/ml of bovine serum albumin (BSA). The non specific binding was measured in the presence of CP55,940 at the 1 μM concentration. […]
(§6) The radioactivity present in the filters was measured by a scintillator spectrophotometer (Tricarb 2100, Packard, Meridien, USA). […]

CB1 receptors [2] = biological target: T1, CB1 receptors; experiment: Hypothermia test in vivo, compound alone (rectal temperature); design: from tissue; host or cells: whole animal (rat), central CB1 receptors of the hypothalamus; conditions: i.p., doses 0.1, 0.5, 1.0, 3.0, 6.0 mg/kg, versus physiological solution (38° C.)
Experimental: The test was carried out with the compound of the Example 3.1c. Aqueous samples were used wherein the compound of the Example 3.1c was dispersed in water with three drops of Tween 80. Following the above procedure, treatments were carried out with doses (mg compound/kg of body weight) respectively of 0.1; 0.5; 1.0; 3.0; 6.0.

CB2 receptors = biological target: T2, CB2 receptors (Rattus norvegicus, UniProt Q9QZN9); experiment: Radioreceptor binding, [3H]-CP-55,940 displacement, rat spleen membranes; conditions: 1 nM [3H]-CP55,940
T2 construct: the brain in toto (cerebellum excluded) and the spleen were rapidely dissected; from tissue; host or cells: rat spleen membranes
T2 sequence (Q9QZN9 1-360): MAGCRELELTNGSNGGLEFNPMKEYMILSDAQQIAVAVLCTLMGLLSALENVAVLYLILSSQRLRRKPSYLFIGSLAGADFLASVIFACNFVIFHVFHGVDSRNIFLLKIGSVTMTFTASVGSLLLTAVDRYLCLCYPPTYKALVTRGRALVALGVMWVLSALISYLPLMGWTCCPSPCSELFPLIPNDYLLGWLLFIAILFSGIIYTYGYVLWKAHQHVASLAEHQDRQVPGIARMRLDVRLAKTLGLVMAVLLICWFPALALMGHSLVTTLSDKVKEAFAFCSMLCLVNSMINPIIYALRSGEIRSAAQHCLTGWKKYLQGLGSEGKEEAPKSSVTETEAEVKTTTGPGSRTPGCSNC
Text: as §1, §2, §3, §4, §5, §6

T1 sequence (P20272 whole entry): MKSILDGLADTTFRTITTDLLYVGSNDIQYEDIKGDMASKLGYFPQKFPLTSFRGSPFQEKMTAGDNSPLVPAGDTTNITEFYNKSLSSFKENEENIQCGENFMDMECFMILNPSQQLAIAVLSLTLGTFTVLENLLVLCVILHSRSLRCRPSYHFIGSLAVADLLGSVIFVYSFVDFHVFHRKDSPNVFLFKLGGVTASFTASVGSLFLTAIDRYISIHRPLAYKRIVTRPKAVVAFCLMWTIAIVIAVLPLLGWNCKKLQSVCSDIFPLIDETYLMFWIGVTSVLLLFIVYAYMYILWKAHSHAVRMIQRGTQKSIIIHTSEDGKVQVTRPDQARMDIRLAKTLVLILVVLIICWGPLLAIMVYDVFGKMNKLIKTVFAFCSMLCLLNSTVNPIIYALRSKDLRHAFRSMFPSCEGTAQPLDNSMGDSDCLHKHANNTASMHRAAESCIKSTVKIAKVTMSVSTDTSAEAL

Row | melting point [°C] | Structure (SMILES) | Ki (CB1 receptors [1]) [nM] | effect of the compound as such on body temperature (CB1 receptors [2]) | Ki (CB2 receptors) [nM]
1 | 175 to 176 | Cc1c(C(=O)Nc2ccccc2)nn(-c2ccc(Cl)cc2Cl)c1-c1ccc(Cl)s1 | – | – | –
2 | – | Cc1c(C(=O)NN2CCCCCC2)nn(-c2ccc(Cl)cc2Cl)c1-c1ccc(Cl)s1 [Example 3.1c, N-homopiperidinyl-5-(5-Chloro-thiophen-2-yl)-1-(2′,4′-dichloro-phenyl)-4-methyl-1H-pyrazol-3-carboxamide] | 21 ± 1 | In none of the examined cases there was a reduction of the body temperature | 270 ± 5
